Reference: patent publication US8436159B2, “Glyphosate resistant class I 5-endolpyruvylshikimate-3-phosphate synthase (EPSPS)” (Monsanto Technology LLC, priority 2003, dated 2013)
Where a chain is given by its changes, count along the chain named.

Legend:
[1] = biological target: T1, maize (Zea mays) class I EPSPS variant TIPA (T102I, P106A), pMON42481, ZmTIPA SEQ ID NO:39 (Zea mays, UniProt O24566, P106A/T102I); assay: EPSPS steady-state kinetics, TIPA variant; format: biochemical
T1 construct: pMON42481
T1 sequence (O24566 1-444 T102I/P106A): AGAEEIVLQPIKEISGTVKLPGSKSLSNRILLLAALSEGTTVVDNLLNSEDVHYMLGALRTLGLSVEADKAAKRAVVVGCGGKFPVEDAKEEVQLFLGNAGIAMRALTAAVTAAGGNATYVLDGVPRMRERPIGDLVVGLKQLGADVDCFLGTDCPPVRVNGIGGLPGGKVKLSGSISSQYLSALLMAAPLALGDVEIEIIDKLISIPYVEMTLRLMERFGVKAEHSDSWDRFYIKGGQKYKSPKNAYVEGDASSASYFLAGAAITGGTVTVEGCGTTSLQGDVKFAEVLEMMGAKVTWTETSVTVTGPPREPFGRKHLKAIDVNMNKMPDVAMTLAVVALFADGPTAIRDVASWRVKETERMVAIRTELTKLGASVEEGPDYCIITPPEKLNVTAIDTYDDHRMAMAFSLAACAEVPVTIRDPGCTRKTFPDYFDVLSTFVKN
Excerpt: (§1) The double variants of the present invention were made using pMON58452 (FIG. 5) as the template. This pMON58452 EPSPS gene template contains the maize EPSPS double variant T102I, P106T (TIPT) that was constructed by mutagenesis of pMON70467 with the mutagenesis primers mEmut-9-U and mEmut-10-L. The various mutagenesis primer sequences were designed and then were synthesized by Invitrogen Corp., Custom Primers and used in combination in a PCR to create the variant EPSPS coding sequences. The PCR was set up in a 50 μl reaction in the following manner: dH2O 38 μl; 2 mM dNTP 1 μL; 10× buffer 5 μL; pMON58452 1 μL (10 ng); primer-U 2 μL; primer-L 2 μL; pfu Turbo enzyme 1 μL. PCR was carried out on a MJ Research PTC-200 thermal cycler using the following program: Step 1—94° C. for 30 seconds; Step 2—94° C. for 30 seconds; Step 3—55° C. for 1 minute; Step 4—68° C. for 14 minute; Step 5—go to step 2, 16 times; Step 6—End. At the end of the PCR, 1 μl of the restriction enzyme DpnI was added to each 50 μl of PCR reaction and the mixture was incubated at 37° C. for 1 hour. […]

[2] = biological target: T2, maize (Zea mays) class I EPSPS variant TIPV (T102I, P106V), pMON42482 (Zea mays, UniProt O24566, P106V/T102I); assay: EPSPS steady-state kinetics, TIPV variant; format: biochemical
T2 construct: pMON42482
T2 sequence (O24566 1-444 T102I/P106V): T1 sequence (O24566 1-444 T102I/P106A) with A106V
Excerpt: as §1

**Q.** With O=C(O)CNCP(=O)(O)O [glyphosate, N-phosphonomethylglycine] as the molecule, how does the Ki [1] read?
**A.** The Ki was 148 ± 18.3 µM.

**Q.** What about the Ki [2] of the same molecule?
**A.** Its Ki is 1600 ± 400 µM.
